# Article PMC9223658, “New Borane-Protected Derivatives of α-Aminophosphonous Acid as Anti-Osteosarcoma Agents: ADME Analysis and Molecular Modeling, In Vitro Studies on Anti-Cancer Activities, and NEP Inhibition as a Possible Mechanism of Anti-Proliferative Activity” (International Journal of Molecular Sciences, 2022)
# Assays:
# Assay type in all cases: cell-based, human
# [1] = tested on: osteosarcoma HOS cells; experiment: MTT proliferation assay, 96 h; details: HOS; for IC50: proliferation, 10% FBS, read-out: IC50 (µM ± SD) HOS
# Protocol: (§1) One of the features specific totumor cells is the unlimited potential for proliferation. […] To this end, the assay conditions were established suchthat they encourage the proliferation of OS cells, i.e., the cell cultures at low density were incubated with compounds diluted in the growth medium (10% FBS) for an extended time of 96 h. Additionally, cisplatin, i.e., a common cytostatic used in osteosarcoma treatment, was included as a positive control in this study. Moreover, since the new generation of anti-cancer compounds is highly desired to be inert (non-cytotoxic) towards normal cells, the influence of compounds 1–7 on the viability of human normal cells (osteoblasts hFOB 1.19 and colon fibroblasts CCD-18Co) was also determined.To this end, the assay conditions were established such that they restrict the proliferation of OS cells and to establish whether the compounds have cytotoxic potential, i.e., the cell cultures were incubated with compounds diluted in the medium with a reduced concentration of FBS (2%) for a shortened time of 24 h. […] However, this activity varied depending on both the types of the compounds and the osteosarcoma cell lines (Table 4).
# (§2) The anti-proliferative activity of compounds 1–7 against the HOS and Saos-2 osteosarcoma cells and the viability of the human normal hFOB 1.19 and CCD-18Co cells were screened by means of the MTT method. This method is commonly used to assess cell viability and proliferation or to determine the cytotoxicity of any compounds. It is a reliable method for this purpose because it is based on measurement of the level reduction in MTT dye to formazan byNAD(P)H-dependent oxidoreductase enzymes of metabolically active cells.
# (§3) To assess the anti-proliferative activity of compounds 1–7 against the HOS and Saos-2 osteosarcoma cells, 3.0 × 10^4 cells/mLseeded (low density culture) into 96-well plates (Nunc, Roskilde, Denmark) were incubated with each compound at concentrations of 3.125, 6.25, 12.5, 25, 50, 100 and 200 µM prepared in medium with 10% FBS (growth medium) for 96 h. Additionally, cisplatin (Sigma Aldrich), i.e., a common cytostatic used in osteosarcoma treatment, was included as a positive control in this study. It was tested in the same conditions as compounds 1–7. The negative control was constituted by the untreated cells (0 µM). Next, the MTT assay was carried out as described previously.
# (§4) The results of these assays were calculated as a percent of the untreated cells (100%; control). Then, the IC50 (concentration resulting in 50% inhibition of proliferation) and CC50 (concentration resulting in a 50% decrease in viability) values were calculated from a non-linear regression (log(inhibitor) vs. normalized response-variable slope) using GraphPad Prism 5.0 (GraphPAD Software Inc., San Diego, CA, USA). The IC50 and CC50 results were presented as themean ± SD of at least three experiments. In the case of the BrdU assay, the results were presented as a percent of untreated cells (100%; control).
# [2] = tested on: osteosarcoma Saos-2 cells; experiment: MTT proliferation assay, 96 h; details: for IC50: SAOS-2, proliferation, 10% FBS, read-out: IC50 (µM ± SD) Saos-2
# Protocol: as §1, §2, §3, §4
# [3] = tested on: HOS cells; experiment: Migration, wound and transwell assays; details: 24 h; for decrease of migration: wound and transwell assays
# Protocol: (§5) The migration of the HOS and Saos-2 cells was examined using the wound and transwell assays. The wound assay was performed in plastic plates (3-cm diameter, Nunc), in which the osteosarcoma cells were seeded at a density of 3.0 × 10^5 cells/mL. The assay was performed as described previously. Briefly, confluent cell cultures (with wounds) were treated with compounds 4 and 6 at concentrations of 12.5, 25, 50 µM and 20, 40, 80 µM as well as 15, 30, 60 µM and 21.25, 42.5, 85 µM for 24 h, respectively. The solutions of the compounds were prepared in a medium with 2% FBS. The control was constituted by the untreated cells (0 µM). To determine the migratory activity of the cells, the width of the wounds (at 0 and 24 h after incubation) was measured, and photos were taken using an inverted microscope Olympus CKX41 equipped with Image Processing (CellSense) software (Olympus, Tokyo, Japan). The results were expressed as a percentage of wound closure calculated using the following formula: ((width of wound at 0h—width of wound after 24h)/width of wound at 0h) × 100%.
# (§6) The transwell migration assay was performed using inserts equipped with a membrane with 8 µm pore size in 24-well plates (Corning, Durham, NC, USA). To this end, the osteosarcoma cells (1 × 10^6 cells/mL) were suspended in a medium supplemented with 0.5% FBS and compounds 4 or 6 at the same concentrations as in the wound assay. The cells were added to the top chambers. The bottom chambers were filled with an appropriate medium supplemented with 10% FBS. After 24 h of incubation, the number of osteosarcoma cells migrating to the lower surface of the insert membrane was quantified using Calcein AM (Sigma Aldrich), which releases the fluorophore after intracellular degradation. The fluorescence was measured by means of a Perkin Elmer Victor^TM plate reader (Thermo Fisher Scientific, Rockford, IL, USA). The cell migratory activity after the treatment with compounds 4 and 6 was calculated as a percentage of invading cells in comparison with the number of invading untreated cells (100%; control).
# [4] = tested on: Saos-2 cells; experiment: Migration, wound and transwell assays; details: Saos-2, 24 h
# Protocol: as §5, §6
# [5] = tested on: active caspase 9 in HOS cells; experiment: Active caspase 9 assay (flow cytometry); details: 72 h
# Protocol: The level of active executor caspase 3 and initiator caspase 9 was determined to examine whether compounds 4 and 6 induced apoptosis in the HOS and Saos-2 cells. The influence of compounds 4 and 6 on HOS and Saos-2 were determined with the caspase 3 assay, whereas the influence of compound 6 on the HOS cells was investigated with the caspase 9 assay. In both assays, the osteosarcoma cells (3.0 × 10^5 cells/mL) were seeded in 6-well plates. The cells were treated with compounds 4 and 6 at concentrations of 12.5, 25, 50 µM and 20, 40, 80 µM as well as 15, 30, 60 µM and 21.25, 42.5, 85 µM for 72 h, respectively. The solutions of the compounds were prepared in a medium with 2% FBS. […] Next, floating and adherent cells were harvested and subjected to further steps of the staining procedures according to the manufacturer’s instruction. The level of active caspase 3 and caspase 9 was determined using the PE Active Caspase-3 Apoptosis Kit (BD Pharmingen^TM) and the CaspaTag^TM Caspase-9 in Situ Assay Kit (Millipore, Darmstadt, Germany), respectively. The number of stained cells (active caspase 3- or 9-positive cells) was measured using FACS Calibur, and the obtained data were analyzed using Cell Quest Pro Version 6.0. for the Macintosh operating system (BD Pharmingen™). The presented results were calculated as a percent of cells with either active caspase 3 or 9 among all the analyzed cells.
IC50 ([1]; Homo sapiens) [µM],"IC50 ([2]; Homo sapiens, MTT) [µM]",Compound,lowest concentration that inhibited proliferation statistically significantly [1] [µM],"inhibition at 6.25 µM ([1]; Homo sapiens, 6.25 µM) [%]","inhibition at 25 µM ([2]; Homo sapiens, Saos-2, 25 µM, MTT, compared to the control) [%]","lowest concentration that inhibited proliferation statistically significantly ([2]; Saos-2, MTT) [µM]",decrease of migration ([3]; 25 µM),decrease of migration ([3]; 50 µM),effect on migration [4],increase in active caspase 9 vs untreated cells ([5]; 40 µM),increase in active caspase 9 vs untreated cells ([5]; 80 µM) [%],depression of migration ([3]; 80 µM)
27.2 ± 7.8,59.9 ± 15,"[BH3-][P+](OC(C)C)(OC(C)C)C(Nc1ccc(Br)cc1)c1ccc([N+](=O)[O-])cc1 (stereo not drawn) [Compound 4, [1-(N-p-bromophenylamino)]-1-(p-nitrophenyl)methylphosphonousacid-borane diisopropyl ester]",6.25,~18,~27,25,approx. 19%,approx. 38%,not affected,,,
41.5 ± 6.9,86.8 ± 15.7,"[BH3-][P+](OC(C)C)(OC(C)C)C(Nc1ccc(C)cc1)c1ccccc1 (stereo not drawn) [Compound 6, [1-(N-p-tolylamino)]-1-phenylmethylphosphonous acid-borane diisopropyl ester]",,,,,,,not affected,approx. 4%,~6,approx. 20%
